Laboratory results: the supplement of paper PMC10307832

Assays:
Test in all cases: relative viability (nuclei count vs DMSO), 5 days (fraction); higher = more cells survive
[1] = compound: Cn1cnc2c(F)c(Nc3ccc(Br)cc3Cl)c(C(=O)NOCCO)cc21 [Selumetinib] + CC(C)C[C@H](NC(=O)[C@H](Cc1ccccc1)NC(=O)c1cnccn1)B(O)O [Bortezomib] (partner 0.002 µM)
How it was run: (§1)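 Relative viability is defined as nuclei in treated wells over nuclei in vehicle wells. Duplicate plates were run and medians reported. Lung cancer cell lines in 1536-well plates were dosed by pin tool one day after seeding, with one drug or with a fixed anchor-drug dose plus five library-drug doses (not always all listed) in √10 steps, and nuclei were counted after 5 days.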

[2] = compound: Cn1cnc2c(F)c(Nc3ccc(Br)cc3Cl)c(C(=O)NOCCO)cc21 [Selumetinib] + C[C@]1(O)C[C@@H](c2nc(-c3ccc4ccc(-c5ccccc5)nc4c3)c3c(N)nccn32)C1 [Linsitinib] (partner 1 µM)
How it was run: as §1

[3] = compound: CC1(C)CCC(CN2CCN(c3ccc(C(=O)NS(=O)(=O)c4ccc(NCC5CCOCC5)c([N+](=O)[O-])c4)c(Oc4cnc5[nH]ccc5c4)c3)CC2)=C(c2ccc(Cl)cc2)C1 [Venetoclax] + Cc1cc(Nc2cc(N3CCN(C)CC3)nc(Sc3ccc(NC(=O)C4CC4)cc3)n2)n[nH]1 [Tozasertib] (partner 0.1 µM)
How it was run: as §1

[4] = compound: Cn1cnc2c(F)c(Nc3ccc(Br)cc3Cl)c(C(=O)NOCCO)cc21 [Selumetinib] + COc1cc2c(Oc3ccc(NC(=O)C4(C(=O)Nc5ccc(F)cc5)CC4)cc3F)ccnc2cc1OCCCN1CCOCC1 [Foretinib] (partner 0.25 µM)
How it was run: as §1

| Cell Line | relative viability ([1]; first compound 0.02 µM) | relative viability ([1]; first compound 0.06325 µM) | relative viability ([1]; first compound 0.2 µM) | relative viability ([1]; first compound 0.6325 µM) | relative viability ([2]; first compound 0.02 µM) | relative viability ([2]; first compound 0.06325 µM) | relative viability ([2]; first compound 0.2 µM) | relative viability ([2]; first compound 0.6325 µM) | relative viability ([3]; first compound 0.01 µM) | relative viability ([3]; first compound 0.03162 µM) | relative viability ([3]; first compound 0.1 µM) | relative viability ([3]; first compound 0.3162 µM) | relative viability ([3]; first compound 1 µM) | relative viability ([4]; first compound 0.02 µM) | relative viability ([4]; first compound 0.06325 µM) | relative viability ([4]; first compound 0.2 µM) | relative viability ([4]; first compound 0.6325 µM) |
| --- | --- | --- | --- | --- | --- | --- | --- | --- | --- | --- | --- | --- | --- | --- | --- | --- | --- |
| COR-L23 | 1.27 | 0.939 | 1.06 | 0.968 | 0.945 | 0.88 | 0.864 | 0.787 | 0.206 | 0.217 | 0.231 | 0.16 | 0.182 | 0.999 | 1.01 | 0.933 | 0.934 |
| BEN | 0.779 | 0.854 | 0.686 | 0.834 | 0.879 | 0.898 | 0.745 | 0.8 | 0.426 | 0.476 | 0.373 | 0.476 | 0.38 | 0.692 | 0.714 | 0.667 | 0.546 |
| NCI-H460 | 0.962 | 0.684 | 0.852 | 0.458 | 0.666 | 0.429 | 0.262 | 0.214 | 0.473 | 0.387 | 0.126 | 0.266 | 0.25 | 0.949 | 0.899 | 0.886 | 0.404 |
| NCI-H647 | 0.96 | 0.946 | 0.901 | 0.73 | 1.28 | 1.06 | 0.827 | 0.803 | 0.228 | 0.225 | 0.361 | 0.22 | 0.262 | 1.19 | 1.21 | 0.842 | 1.02 |
| ABC-1 | 0.279 | 0.258 | 0.275 | 0.291 | 0.794 | 0.678 | 0.607 | 0.614 | 0.16 | 0.17 | 0.178 | 0.156 | 0.219 | 0.906 | 0.882 | 0.951 | 0.767 |
| NCI-H1734 | 1.04 | 0.819 | 1.02 | 0.835 | 0.862 | 0.849 | 0.865 | 0.816 | 0.275 | 0.241 | 0.216 | 0.269 | 0.239 | 0.88 | 0.843 | 0.672 | 0.611 |
| NCI-H2023 | 0.899 | 0.785 | 0.895 | 0.896 | 0.583 | 0.546 | 0.466 | 0.576 | 0.328 | 0.407 | 0.392 | 0.393 | 0.218 | 0.709 | 0.811 | 0.6 | 0.572 |
| NCI-H2009 | 0.788 | 0.591 | 0.538 | 0.362 | 1.07 | 0.842 | 0.562 | 0.489 | 0.775 | 0.748 | 0.743 | 0.759 | 0.538 | 0.965 | 0.87 | 0.511 | 0.337 |
| HCC-78 | 0.468 | 0.359 | 0.392 | 0.425 | 0.446 | 0.402 | 0.419 | 0.378 | 0.349 | 0.454 | 1.29 | 0.404 | 0.497 | 0.516 | 0.435 | 0.401 | 0.449 |
